Holding throughout (format): in vivo
One test has as its system Magnaporthe grisea. The test is described as follows: whole plant or invertebrate. To be noted: Pyricularia oryzae, in Oryza sativa, read-out: Test A control value.
The subject of another test is Botrytis cinerea. In words: Test Example B: Gray mold on tomato. The note with it: Gray mold on tomato, read-out: Test B control value.
The test system of another test is Alternaia brassicicola. In words: Test Example C: Alternaria sooty spot on cabbage. To be noted: Brassica oleracea; Alternaria sooty spot on cabbage; read-out: Test C control value.
Test [1] deals with Blumeria graminis f. sp. hordei. The test is described as follows: Test Example D: Powdery mildew on barley. The note with it: Powdery mildew on barley, read-out: Test D control value.
The test system of the next test is Puccinia recondita. In words: Test Example E: Brown rust on wheat. To be noted: Brown rust on wheat, read-out: Test E control value.
The next test has as its system Phytophthora infestans. In words: whole plant or invertebrate. To be noted: in Solanum lycopersicum, read-out: Test F control value.
Another test concerns Plasmopara viticola. The test is described as follows: Test Example G: Downy mildew on vine. The note with it: Downy mildew on vine, 250 ppm sprayed, 2.5 ml/pot, 7 to 10 days after inoculation, read-out: Test G control value.

The structures appear in SMILES notation.

Regarding `CCn1c(-c2c(F)cc(F)cc2F)c(-n2cncn2)cc(Cl)c1=O` [compound 34, 3-chloro-1-ethyl-5-(1H-1,2,4-triazol-1-yl)-6-(2,4,6-trifluorophenyl)pyridin-2(1H)-one], the pest or weed control at 250 µg/mL was over 50% in the test on Magnaporthe grisea; over 50% in the test on Botrytis cinerea; over 50% with Alternaia brassicicola; over 50% in test [1]; over 50% in the test with Puccinia recondita; under 50% in the test on Phytophthora infestans. Moreover, in the test with Plasmopara viticola, the pest or weed control at 250 ppm was under 50%.
Take `CCn1c(-c2c(F)cc(F)cc2F)c(-n2ncnc2Br)cc(Cl)c1=O` [compound 35, 5-(5-bromo-1H-1,2,4-triazol-1-yl)-3-chloro-1-ethyl-6-(2,4,6-trifluorophenyl)pyridin-2(1H)-one]: the pest or weed control at 250 µg/mL with Magnaporthe grisea was over 50%; in the test on Botrytis cinerea, over 50%; in the test with Alternaia brassicicola, over 50%; in test [1], over 50%; in the test on Puccinia recondita, over 50%; in the test on Phytophthora infestans, under 50%. For the same compound, the pest or weed control at 250 ppm in the test with Plasmopara viticola is under 50%.
Turning to `CCn1c(-c2c(F)cc(F)cc2F)c(-c2cnco2)cc(Cl)c1=O` [compound 36, 3-chloro-1-ethyl-5-(oxazol-5-yl)-6-(2,4,6-trifluorophenyl)pyridin-2(1H)-one], the pest or weed control at 250 µg/mL in the test with Magnaporthe grisea is over 50%; in the test with Botrytis cinerea, under 50%; in the test on Alternaia brassicicola, over 50%; in test [1], under 50%; in the test with Puccinia recondita, over 50%; in the test with Phytophthora infestans, under 50%. For the same compound, the pest or weed control at 250 ppm with Plasmopara viticola was under 50%.
`CCn1c(-c2c(F)cc(F)cc2F)c(-n2cc(Cl)cn2)cc(Cl)c1=O` [compound 40, 3-chloro-5-(4-chloro-1H-pyrazol-1-yl)-1-ethyl-6-(2,4,6-trifluoro-phenyl)pyridin-2(1H)-one]: the pest or weed control at 250 µg/mL was over 50% in the test with Magnaporthe grisea; over 50% in the test on Botrytis cinerea; over 50% in the test on Alternaia brassicicola; over 50% in test [1]; over 50% in the test with Puccinia recondita; under 50% with Phytophthora infestans. Besides, in the test on Plasmopara viticola, the pest or weed control at 250 ppm is under 50%.
On to `CCn1c(-c2c(F)cc(OC)cc2F)c(-n2cc(Cl)cn2)cc(Cl)c1=O` [compound 41, 3-chloro-5-(4-chloro-1H-pyrazol-1-yl)-6-(2,6-difluoro-4-methoxyphenyl)-1-ethylpyridin-2(1H)-one], for which the pest or weed control at 250 µg/mL was over 50% with Magnaporthe grisea; over 50% in the test with Botrytis cinerea; over 50% in the test with Alternaia brassicicola; over 50% in test [1]; over 50% in the test with Puccinia recondita; under 50% in the test on Phytophthora infestans. Moreover, in the test with Plasmopara viticola, the pest or weed control at 250 ppm was under 50%.
As for `CCn1c(-c2c(F)cccc2F)c(-c2ocnc2C)cc(Cl)c1=O` [compound 43, 3-chloro-6-(2,6-difluorophenyl)-1-ethyl-5-(4-methyloxazol-5-yl)pyridin-2(1H)-one], the pest or weed control at 250 µg/mL in the test on Magnaporthe grisea was over 50%; with Botrytis cinerea, over 50%; with Alternaia brassicicola, over 50%; in test [1], over 50%; with Puccinia recondita, over 50%; in the test with Phytophthora infestans, under 50%. Besides, the pest or weed control at 250 ppm in the test with Plasmopara viticola was under 50%.
`CCn1c(-c2c(F)cc(F)cc2F)c(-n2cc(Br)cn2)cc(Cl)c1=O` [compound 70, 5-(4-bromo-1H-pyrazol-1-yl)-3-chloro-1-ethyl-6-(2,4,6-trifluorophenyl)pyridin-2(1H)-one]: the pest or weed control at 250 µg/mL with Magnaporthe grisea was over 50%; with Botrytis cinerea, over 50%; with Alternaia brassicicola, over 50%; in test [1] it was over 50%; in the test with Puccinia recondita it was over 50%; in the test with Phytophthora infestans it was under 50%. In addition, the pest or weed control at 250 ppm in the test on Plasmopara viticola is under 50%.

Values taken from patent US11178870B2 (priority 2017, dated 2021).
